Results on 2 sequences are retold here after article PMC10537229, “Antimicrobial Peptides Originating from Expression Libraries of Aurelia aurita and Mnemiopsis leidyi Prevent Biofilm Formation of Opportunistic Pathogens” (Microorganisms, 2023).

For data set [1], the system named is K. oxytoca. The data set can be described thus: Growth of planktonic-growing pathogens (turbidity at 600 nm). The class given is cell-based, Klebsiella oxytoca. As to conditions: 112.5 µg/mL peptide, LB, 18 h, 80 rpm, 30 °C; mean of 2 biological x 8 technical replicates; control 1.21326667. The procedure:
(§1) In addition, the potential growth-inhibiting effects of synthetic peptides were tested on planktonic-growing pathogens. Again, 3 × 10^8 cells/mL diluted in LB medium were aliquoted in 96-well plates (200 µL for each cavity). Synthetic peptides were added to two selected final concentrations of 3.5 µg/mL and 112.5 µg/mL at the beginning of the experiment. MTPs were closed with gas-permeable membranes and gently shaken at 80 rpm and 37 °C (P. aeruginosa, S. aureus, and S. epidermidis) or 30 °C (K. oxytoca) for 18 h. A comparative endpoint determination (growth control, peptide control IDR-1018, and identified peptides) of the turbidity at 600 nm was measured with plate reader Spectra max Plus 384. An unpaired t-test was conducted as a statistical hypothesis test to determine the significance (p-value) of growth differences.

In the next data set the test system is K. oxytoca M5aI. In words: Dynamic biofilm formation in microfluidic flow cell (Syto9, CLSM). The class given is cell-based, Klebsiella oxytoca. As to conditions: peptide 10 ng/channel, GC medium, flow 15 µL/h, 24 h, 30 °C, mean ± SD of four biological x four technical replicates; for biofilm thickness: medium control 11 ± 6 µm; for biofilm volume: medium control 112 ± 62 µm^3. From the text: The microfluidic flow cell system comprises a polymethyl methacrylate corpus with a single channel (1 × 8 × 0.1 mm). Two inlets and one outlet exist. A borosilicate glass (24 × 60 × 0.17 mm; Carl Roth, Karlsruhe, Germany) was fixed with the adhesive Black-Seal silicone (Weicon, Münster, Germany). Microliter syringes (Innovative Labor System GmbH, Stützenbach, Germany) were connected via polytetrafluoroethylene (PTFE) tubes (0.3 mm × 0.6 mm) (Bola, Grünsfeld, Germany) with the in- and outlets and clamped into a syringe pump (Model: 220) (KD Scientific, Holliston, MA, USA). The channel was sterilized by rinsing 70% EtOH for 24 h at a flow rate of 20 µL/h. Afterwards, the remaining ethanol was washed out with sterile water at 20 μL/h for 1 h. Subsequently, the channel was equilibrated with GC medium at 20 μL/h for 2 h. Inoculation was conducted with a cell suspension of 1 × 10^9 cells/mL, generated from an overnight culture of K. oxytoca M5aI. Initial cell adhesion was ensured by incubation at 30 °C for 1 h without any flow. Next, the channel was continuously rinsed at 15 μL/h with GC medium injected within the first inlet. The synthetic peptides IDR-1018 (biofilm-preventing control peptide, [47, 48], BiP_Aa_2, BiP_Aa_5, and BiP_Aa_6 were diluted in GC medium to a concentration of 25 µg/mL and injected within the second inlet. Thus, the final peptide concentration was 12.5 µg/mL, corresponding to 10 ng peptide within the 0.8 µL channel. Biofilm formation was conducted at a flow rate of 15 µL/h for 24 h at 30 °C. The biofilm formation of K. oxytoca M5aI was further studied without adding peptides. Four biological replicates were conducted for each treatment.
Biofilms were stained with the fluorescent dye Syto9 (488 nm) (Life Technologie, Carlsbad, CA, USA) and analyzed using the LSM 700 confocal laser scanning microscope (Zeiss, Oberkochen, Germany). Therefore, the microfluidic flow cells were washed with GC medium at 3 µL/min for 15 min. The channel was then filled with a 1:1000 dilution of the fluorescent dye Syto9 and incubated in the dark at RT for 30 min. Dye residues were removed by rinsing GC medium at 3 μL/min for 15 min. Four image stacks were recorded per flow cell with optical sections of 0.9 µm per z-step. The digital image acquisition, three-dimensional reconstruction, and calculation of the biofilm parameters were performed with the software “Zen Black” (version 14.0.22.201) (Zeiss, Oberkochen, Germany) and the microscopy image analysis software “Imaris” (version 9.9.0) (Oxford Instruments, Abingdon, UK).

Data set [2] relates to K. oxytoca. In words: Biofilm prevention in vitro assay (crystal violet, static). In kind it is cell-based, Klebsiella oxytoca. As to conditions: 18 h. The procedure: (§2) The opportunistic pathogenic bacteria K. oxytoca (DSM 7342, M5a1-type strain), P. aeruginosa PAO1 (DSM 1707, pathogenic-type strain), S. epidermidis RP62A (DSM 28319, clinical isolate from catheter sepsis), and S. aureus (DSM 11823, clinical isolate) were grown in 5 mL LB medium overnight at below-indicated temperatures. The cell concentrations of the overnight cultures were analyzed with Neubauer cell counting and set to 3 × 10^8 cells/mL using GC minimal medium (with 1% (v/v) glycerol and 0.3% (w/v) casamino acids) for K. oxytoca and Caso bouillon (17 g/L casein peptone, 3 g/L soybean peptone, 5 g/L NaCl, 2.5 g/L K2HPO4, and 2.5 g/L glucose) for the remaining strains in the crystal violet assay. Cultures were aliquoted in 96-well plates (180/195 µL for each cavity). Cell-free size-fractionated cell extracts (20 µL) and synthesized peptides (various concentrations, 5 µL) were added to the cultures. MTPs were closed with gas-permeable membranes (Breathe-Easy®, Diversified Biotech, Dedham, MA, USA) and incubated at 37 °C (P. aeruginosa, S. aureus, and S. epidermidis) or 30 °C (K. oxytoca) for 18 h without shaking. Three biological replicates were performed, each with eight technical replicates. Medium controls were performed for normalization. Biofilm formation was monitored and quantified using the crystal violet assay. Following an 18 h incubation period, the cell cultures were removed, and the wells underwent two washes with H2O. Biofilms that developed and adhered to the surfaces were subjected to staining using 200 μL of a 0.1% crystal violet solution (Carl Roth, Karlsruhe, Germany) for 10 min at room temperature (RT). The stained biofilms were left to air dry after eliminating the crystal violet solution through two H2O washes. A total of 200 μL of 96% ethanol was introduced into each stained well to solubilize the dye, and incubation at RT for 15 min followed. Biofilm formation was assessed by measuring the absorbance of resolved crystal violet at 590 nm with the plate reader Spectra max Plus 384 (Molecular Devices, Ismaning; Germany). The screening procedure is depicted in Figure S1.

A further data set relates to P. aeruginosa PAO1. The description is as above. The class given is cell-based, Pseudomonas aeruginosa. As to conditions: 18 h; for effect on P. aeruginosa biofilm formation (in words): synthetic peptide 0.4-112.5 µg/mL. Here is the method:
as §2

A further data set concerns S. epidermidis RP62A. The data set is described as above. The conditions noted are these: 18 h. The class given is cell-based, Staphylococcus epidermidis. Here is the method: as §2
For a further data set, the system named is P. aeruginosa. The data set can be described thus: Growth of planktonic-growing pathogens (turbidity at 600 nm). In kind it is cell-based, Pseudomonas aeruginosa. As to conditions: 18 h; for turbidity (600 nm), P. aeruginosa: 112.5 µg/mL peptide, LB, 80 rpm, 37 °C, mean of 2 biological x 8 technical replicates, control 1.2788369; for reduction of planktonic growth of P. aeruginosa: 112.5 µg/mL, versus control without peptide. Here is the method: as §1

In data set [3] the test system is K. oxytoca, P. aeruginosa, S. epidermidis, and S. aureus. The data set can be described thus: Crystal violet biofilm assay, statements on all tested pathogens. In kind it is cell-based. The conditions noted are these: summary in discussion. The procedure: as §2, with “Three biological replicates were performed, each with eight technical replicates. Medium controls were performed for normalization.” left out, “Following an 18 h incubation period, the cell cultures were removed, and the wells underwent two washes with H2O. Biofilms that developed and adhered to the surfaces were subjected to staining using 200 μL of a 0.1% crystal violet solution (Carl Roth, Karlsruhe, Germany) for 10 min at room temperature (RT). The stained biofilms were left to air dry after eliminating the crystal violet solution through two H2O washes. A total of 200 μL of 96% ethanol was introduced into each stained well to solubilize the dye, and incubation at RT for 15 min followed.” left out, “The screening procedure is depicted in Figure S1.” left out

The test system of a further data set is S. epidermidis. The data set can be described thus: Growth of planktonic-growing pathogens (turbidity at 600 nm). The class given is cell-based, Staphylococcus epidermidis. As to conditions: 18 h; for turbidity (600 nm), S. epidermidis: 112.5 µg/mL peptide, LB, 80 rpm, 37 °C, mean of 2 biological x 8 technical replicates, control 1.3398. Here is the method: as §1

Data set [4] has as its system S. aureus. The data set is described as above. The conditions noted are these: 18 h; for turbidity (600 nm), S. aureus: 112.5 µg/mL peptide, LB, 80 rpm, 37 °C, mean of 2 biological x 8 technical replicates, control 1.37192917; for reduction of planktonic growth of S. aureus: 112.5 µg/mL, versus control without peptide. The class given is cell-based, Staphylococcus aureus. The procedure: as §1

Data set [5] is described as follows: Dimerization of peptide with increasing concentration (preliminary results). The class given is physicochemical.
Data set [6] concerns S. aureus. The data set can be described thus: Biofilm prevention in vitro assay (crystal violet, static). In kind it is cell-based, Staphylococcus aureus. As to conditions: synthetic peptide 0.4-112.5 µg/mL, 18 h. The procedure:
as §2

Setting [7] is: synthetic peptide at highest concentration 112.5 µg/mL, versus biofilm control (100%).
The mark [8] stands for this setting: synthetic peptide 0.4-112.5 µg/mL.

Entries after “also recorded” stand apart in the source; their conditions may differ.

“VRNSVLFRRRRLVC [BiP_Aa_5, synthetic peptide from sORF of A. aurita EST clone 127_8F]”: the “turbidity (600 nm), K. oxytoca” value in the data set on K. oxytoca [1] is 1.257. In the data set on K. oxytoca M5aI, the biofilm thickness came out at 7 ± 2 µm and the biofilm volume is reported as 51 ± 25 µm^3. Besides, the “reduction of K. oxytoca biofilm formation at 112.5 µg/mL” value in the data set with K. oxytoca [2] (setting [7]) was found to be 54%. Also, in the data set on P. aeruginosa PAO1, the “effect on P. aeruginosa biofilm formation (in words)” value was “slight interference”. Moreover, the “reduction of P. aeruginosa biofilm formation at 112.5 µg/mL” value in the data set with P. aeruginosa PAO1 (synthetic peptide at highest dose 112.5 µg/mL, versus biofilm control (100%)) stood at 47%. For the same sequence, the “reduction of S. epidermidis biofilm formation at 112.5 µg/mL” value in the data set on S. epidermidis RP62A (setting [7]) came to 22%. In addition, in the data set with P. aeruginosa, the “turbidity (600 nm), P. aeruginosa” value is reported as 1.249 and the “reduction of planktonic growth of P. aeruginosa” value was 1.5–5%. In [3], the “reduction of biofilm masses, all tested pathogens” value is given as “up to 50%”. Besides, the “turbidity (600 nm), S. epidermidis” value in the data set with S. epidermidis came to 1.301. Further, the “reduction of planktonic growth of S. epidermidis” value in the data set with S. epidermidis (112.5 µg/mL, versus control without peptide) amounted to 3%. Besides, in the data set on S. aureus [4], the “turbidity (600 nm), S. aureus” value was 1.312 and the “reduction of planktonic growth of S. aureus” value is recorded as 1.5–5%.
For “QLFCTKLSPT [BiP_Aa_2, synthetic peptide from sORF of A. aurita EST clone 112_6C]”, the “aggregation with increasing peptide concentration” value in data set [5] is reported as “dimerization”. Also, the “turbidity (600 nm), K. oxytoca” value in the data set on K. oxytoca [1] was found to be 1.204. Also, in the data set on K. oxytoca M5aI, the biofilm thickness was 8 ± 3 µm and the biofilm volume was found to be 34 ± 12 µm^3. Moreover, the “effect on K. oxytoca biofilm formation (in words)” value in the data set with K. oxytoca [2] (setting [8]) is reported as “no significant change in biofilm formation until 14.1 µg/mL”. Moreover, in the data set with K. oxytoca [2] (synthetic peptide 0.4-112.5 µg/mL, maximum or overall reduction), the “reduction of K. oxytoca biofilm formation over concentration range” value is reported as “up to 43%”. Further, the “effect on P. aeruginosa biofilm formation (in words)” value in the data set with P. aeruginosa PAO1 was “negligible impact”. Moreover, the “effect on S. epidermidis biofilm formation (in words)” value in the data set on S. epidermidis RP62A (setting [8]) is listed as “appeared to reverse with increasing concentrations”. Further, the “reduction of S. epidermidis biofilm formation over concentration range” value in the data set on S. epidermidis RP62A (synthetic peptide 0.4-112.5 µg/mL, maximum or range of reduction) was found to be 45%. In the data set with P. aeruginosa, the “turbidity (600 nm), P. aeruginosa” value worked out at 1.2593 and the “reduction of planktonic growth of P. aeruginosa” value is listed as 1.5–5%. For the same sequence, the “turbidity (600 nm), S. epidermidis” value with S. epidermidis came to 1.368. In addition, the “effect on S. aureus biofilm formation (in words)” value in the data set with S. aureus [6] is listed as “negligible impact; also recorded: could not interfere with biofilm formation”. Further, in the data set on S. aureus [4], the “turbidity (600 nm), S. aureus” value stood at 1.304 and the “reduction of planktonic growth of S. aureus” value is on record as 1.5–5%.
